Data set [1] has as its system tumor models and human carcinomas. The settings on record: cited from earlier work.
The nature of the next data set: in vivo. The settings on record: mouse, iv, 10 mg/kg. How it is done:
At 1, 4, 24, and 48 hours, the animals were terminated by CO2 asphyxiation and whole blood was collected via cardiac puncture. The collected blood was immediately placed into EDTA coated tubes (MICROTAINERS® from Becton Dickinson). Subsequently, plasma was prepared by centrifuging the EDTA treated whole blood at 500×g for 10 min. Lipid and drug was assayed via [^3 H]-Cholesteryl hexadecyl ether and I^14 C]-mitoxantrone tracer using a scintillation counter as described above.
An estimation of the amount of mitoxantrone retained in the liposomes that are in the circulation can be made by determining the ratio of mitoxantrone-to-lipid at the indicated time points. This estimation assumes that the level of free drug in the plasma of animals given liposomal mitoxantrone will be negligible.

The subject of another data set is L1210. The data set can be described thus: L1210 anti-tumor activity (survival). It is filed as in vivo, BDF1 mice. The settings on record: for 60 Day Survival / Mean Survival: single; for % ILS (Increase in Life Span): vs untreated control. As for the experimental part:
(§1) Injections were administered in a volume of 200 μL. In order to achieve this volume for the 20 mg/kg dose, the stock mixture was concentrated using Aquacide II. Survival times of the mice were then monitored over a sixty day time course. Increase in life span (ILS %) was calculated as follows: [formula] Maximum tolerated dose was determined by monitoring the weight loss of the mice over a two week period. If the mice lost greater than 30% of the original weight then the mice are terminated.
The antitumor effects of free mitoxantrone and liposomal mitoxantrone were compared using the L1210 tumor model. L1210 is a murine lymphocytic leukemia. […] This provides identical tumor models for the two organs.

A short description of data set [2]: Toxic dose range finding (maximum tolerated dose) in tumor-free mice. The settings on record: mouse, in vivo. How it is done: as §1
Data set [3] is described as follows: Change in body weight during efficacy studies. How it is done: as §1

Each structure is given as a SMILES string. Structures can show the parent of a compound that is named as a salt.

Here are results for two compounds from US5858397A, “Liposomal formulations of mitoxantrone” (priority 1995, dated 1999).

A word on the AUC: it is concentration integrated over time.

In the case of `O=C1c2c(O)ccc(O)c2C(=O)c2c(NCCNCCO)ccc(NCCNCCO)c21` [Free Mitoxantrone, mitoxantrone hydrochloride], in data set [1], the “short and long term toxicity compared with doxorubicin” value was “lower short and long term toxicity than doxorubicin”; the toxic side effect result is given as “myelosuppression”. Moreover, the AUC in the data set “in vivo” is 11.4 ng·h/mL. Further, the maximum therapeutic dose in the data set with L1210 (10^4 L1210 cells i.v., treated 24 h later) came out at 10 mg/kg. For the same compound, in the data set on L1210 (drug dose 5 mg/kg), the “60 Day Survival” value is recorded as 0/5, the “Mean Survival” value is 13.6 days and the “% ILS (Increase in Life Span)” value is given as 58%. For the same compound, in the data set with L1210 (drug dose 10 mg/kg), the “60 Day Survival” value is 0/5, the “Mean Survival” value was 16.6 days and the “% ILS (Increase in Life Span)” value is recorded as 93%. Besides, in the data set with L1210 (drug dose 20 mg/kg), the “60 Day Survival” value is reported as 0/5, the “Mean Survival” value worked out at 12.6 days and the “% ILS (Increase in Life Span)” value was 47%. Also, the “maximum % increase in life span” value in the data set with L1210 (maximum over the doses tested) is reported as 93%. Also, the MTD in data set [2] is 10 mg/kg. In data set [3] (L1210-bearing mice, free 10 mg/kg, liposomal 20 mg/kg, day 12 to 13), the “body weight loss at nadir” value is about 30%. Further, in data set [3] (mouse, in vivo), the MTD was determined as 10 mg/kg.
As for `COc1cccc2c1C(=O)c1c(O)c3c(c(O)c1C2=O)C[C@@](O)(C(=O)CO)C[C@@H]3O[C@H]1C[C@H](N)[C@H](O)[C@H](C)O1` [doxorubicin], in data set [1], the toxic side effect result is given as “dose limiting cardiotoxicity”.
